# Assays:
# [1] = system: early third-instar larvae of Ae. aegypti; assay: Direct-contact mortality bioassay, Ae. aegypti larvae; conditions: for LC50: Aedes aegypti, 24 h, read-out: LC50 (Ae. aegypti), mg/L (95% CL); for LC50 (Ae. aegypti), mg/L (95% CL): early third-instar larvae, 24 h exposure, direct contact
# Description: (§1) Direct-contact mortality bioassays were employed to evaluate the toxicity of all compounds, using early third-instar larvae of each mosquito species. Each compound was dissolved in methanol, and then further diluted in distilled water containing Triton X-100 (20 µL/L). Groups of 20 mosquito larvae of each species were put into separate paper cups (270 mL), each containing different compound solutions (250 mL). The toxicity of each compound was determined by repeating this experimental procedure with different concentrations, ranging from 5 to 200 mg/L. Temephos and fenthion served as standard references and were similarly formulated as well. Controls contained only methanol-Triton X-100 carrier solution in distilled water.
# (§2) Both treated and control larvae were kept under the same conditions as those used for colony maintenance. […] Due to certain constraints arising from the number of available larvae, all necessary bioassays could not be conducted simultaneously and thus, treatments were conducted over a period of time, with a separate control treatment included each time. Freshly prepared compound solutions were used for each round of bioassays. All bioassays were repeated three times.
# (§3) Concentration-mortality data were subjected to probit analysis using SAS [20]. […] Furthermore, for the compounds tested in AChE inhibition assays, a correlation analysis between their LC50 values and IC50 values was conducted using SAS [20].
# [2] = system: early third-instar larvae of Ae. albopictus; assay: Direct-contact mortality bioassay, Ae. albopictus larvae; conditions: for LC50: Aedes albopictus, 24 h, read-out: LC50 (Ae. albopictus), mg/L (95% CL); for LC50 (Ae. albopictus), mg/L (95% CL): early third-instar larvae, 24 h exposure, direct contact
# Description: as §1, §2, §3
# [3] = system: early third-instar larvae of Cx. p. pallens; assay: Direct-contact mortality bioassay, laboratory-reared Cx. p. pallens larvae; conditions: for LC50: Culex pipiens, 24 h, read-out: LC50 (Cx p. pallens), mg/L (95% CL); for LC50 (Cx p. pallens), mg/L (95% CL): laboratory-reared early third-instar larvae, 24 h exposure, direct contact
# Description: as §1, §2, §3
# [4] = system: field-collected larvae of Cx. p. pallens; assay: Semi-field bioassay, field-collected Cx. p. pallens larvae; conditions: for LC50: Culex pipiens, 24 h, read-out: LC50, mg/L, Field-collected; for Resistance ratio: field-collected vs laboratory-reared Cx. p. pallens larvae (LC50 ratio)
# Description: Larvae of wild mosquitoes were field-collected from irrigated rice fields in Yongin, Korea in early August 2012. A satellite view of the larvae collection site is included in Figure 1 [13].
# The buckets were treated with test compounds and covered with nylon mesh screen to prevent other mosquitoes and insects from laying eggs. The buckets were then placed back at the initial collection site and were allowed to stand for 24 h, after which the mortality data were recorded. Temephos and fenthion served as standard references.
# as §3
compound,measurement,setting,value
C=C1C2CCC(C2)C1(C)C (stereo not shown) [Camphene],LC50,[1],72.9 mg/L
same,LC50,[2],79.1 mg/L
same,LC50,[3],80.1 mg/L
CC1(C)[C@@H]2CC[C@H](CO)[C@H]1C2 (relative stereo) [(−)-cis-myrtanol],"LC50 (Ae. aegypti), mg/L (95% CL)",[1],>150 mg/L
same,"LC50 (Ae. albopictus), mg/L (95% CL)",[2],>150 mg/L
same,"LC50 (Cx p. pallens), mg/L (95% CL)",[3],>150 mg/L
C=C1CC[C@H]2O[C@]2(C)CC[C@@H]2[C@@H]1CC2(C)C [Caryophyllene oxide],"LC50 (Ae. aegypti), mg/L (95% CL)",[1],113.00 (104.54–123.59) mg/L
same,"LC50 (Ae. albopictus), mg/L (95% CL)",[2],107.62 (99.82–116.81) mg/L
same,"LC50 (Cx p. pallens), mg/L (95% CL)",[3],126.28 (110.92–158.13) mg/L
Cc1cccc(C(C)C)c1 [m-cymene],LC50,[1],69.7 mg/L
same,LC50,[2],62 mg/L
same,LC50,[3],59.4 mg/L
CC12CCC(CC1=O)C2(C)C (stereo not shown) [Camphor],LC50,[1],> 150 mg/L
same,LC50,[2],> 150 mg/L
same,LC50,[3],> 150 mg/L
CC1=CC[C@H](C(C)C)C=C1 [α-phellandrene],LC50,[1],19.4 mg/L
same,LC50,[2],16.9 mg/L
same,LC50,[3],14 mg/L
CC1=CCC(C(C)C)=CC1 [γ-terpinene],LC50,[1],20.5 mg/L
same,LC50,[2],16.2 mg/L
same,LC50,[3],17.8 mg/L
CC(=O)OC(C)(C)C1CC=C(C)CC1 (stereo not shown) [Terpinyl acetate],"LC50 (Ae. aegypti), mg/L (95% CL)",[1],96.32 (89.89–103.04) mg/L
same,"LC50 (Ae. albopictus), mg/L (95% CL)",[2],72.39 (65.05–80.55) mg/L
same,"LC50 (Cx p. pallens), mg/L (95% CL)",[3],58.27 (52.60–64.82) mg/L
CC(C)=CCC[C@H](C)CC=O [(−)-citronellal],LC50,[1],37.5 mg/L
same,LC50,[2],41.1 mg/L
same,LC50,[3],41.9 mg/L
Cc1ccc(C(C)C)cc1 [p-cymene],LC50,[1],33.5 mg/L
same,LC50,[2],32.8 mg/L
same,LC50,[3],29.7 mg/L
"COP(=S)(OC)Oc1ccc(Sc2ccc(OP(=S)(OC)OC)cc2)cc1 [Temephos, reference compound]",LC50,[1],0.015 mg/L
same,LC50,[2],0.01 mg/L
same,LC50,[4],1.68 mg/L
same,Resistance ratio,[4],129.23
same,LC50,[3],0.013 mg/L
C=C1CC/C=C(\C)CC[C@@H]2[C@@H]1CC2(C)C [β-caryophyllene],LC50,[1],38.6 mg/L
same,LC50,[2],39.5 mg/L
same,LC50,[3],47.8 mg/L
C=C(C)C1CC=C(C)[C@@H](O)C1 (stereo partly shown) [Carveol],LC50,[1],124 mg/L
same,LC50,[2],121 mg/L
same,LC50,[3],114 mg/L
CC1=C[C@H](O)[C@H]2C[C@@H]1C2(C)C (relative stereo) [(S)-cis-verbenol],"LC50 (Ae. aegypti), mg/L (95% CL)",[1],>150 mg/L
same,"LC50 (Ae. albopictus), mg/L (95% CL)",[2],136.86 (121.92–161.87) mg/L
same,"LC50 (Cx p. pallens), mg/L (95% CL)",[3],140.41 (124.89–167.57) mg/L
CC(C)=CCC/C(C)=C\CO [Nerol],LC50,[1],121 mg/L
same,LC50,[2],112 mg/L
same,LC50,[3],111 mg/L
CC1=CC[C@@H]2C[C@H]1C2(C)C [(1R)-(+)-α-pinene],LC50,[1],51.3 mg/L
same,LC50,[2],55.6 mg/L
same,LC50,[3],60.8 mg/L
"COP(=S)(OC)Oc1ccc(SC)c(C)c1 [Fenthion, reference compound]",LC50,[1],0.022 mg/L
same,LC50,[2],0.012 mg/L
same,LC50,[4],3.12 mg/L
same,Resistance ratio,[4],115.56
same,LC50,[3],0.027 mg/L
CC1=CCC2C(C1)C2(C)C (stereo not shown) [δ-3-carene],LC50,[1],12.1 mg/L
same,LC50,[2],9.33 mg/L
same,LC50,[4],12.7 mg/L
same,Resistance ratio,[4],1.25
same,LC50,[3],10.1 mg/L
CC(C)=CCCC(C)CCO (stereo not drawn) [(−)-β-citronellol],"LC50 (Ae. aegypti), mg/L (95% CL)",[1],75.31 (68.31–83.22) mg/L
same,"LC50 (Ae. albopictus), mg/L (95% CL)",[2],71.99 (64.67–80.37) mg/L
same,"LC50 (Cx p. pallens), mg/L (95% CL)",[3],66.26 (59.63–73.33) mg/L
CC(C)=CCCC(C)CCO (stereo not drawn) [(+)-β-citronellol],"LC50 (Ae. aegypti), mg/L (95% CL)",[1],93.46 (85.80–101.82) mg/L
same,"LC50 (Ae. albopictus), mg/L (95% CL)",[2],90.89 (83.26–99.00) mg/L
same,"LC50 (Cx p. pallens), mg/L (95% CL)",[3],87.81 (80.62–95.50) mg/L
"CC1=CCC(O)(C(C)C)CC1 (single isomer, unassigned; (+)) [(+)-terpinen-4-ol]","LC50 (Ae. aegypti), mg/L (95% CL)",[1],78.73 (71.24–85.73) mg/L
same,"LC50 (Ae. albopictus), mg/L (95% CL)",[2],98.28 (91.85–105.07) mg/L
same,"LC50 (Cx p. pallens), mg/L (95% CL)",[3],86.25 (78.22–95.55) mg/L
CC(=O)OC/C=C(\C)CCC=C(C)C [Geranyl acetate],LC50,[1],21.4 mg/L
same,LC50,[2],33 mg/L
same,LC50,[3],30.3 mg/L
(−)-terpinen-4-ol,"LC50 (Ae. aegypti), mg/L (95% CL)",[1],72.36 (66.33–78.22) mg/L
same,"LC50 (Ae. albopictus), mg/L (95% CL)",[2],92.16 (84.28–101.24) mg/L
same,"LC50 (Cx p. pallens), mg/L (95% CL)",[3],85.66 (75.71–97.28) mg/L
C=CC(C)(CCC=C(C)C)OC(C)=O (stereo not shown) [Linanyl acetate],LC50,[1],97.8 mg/L
same,LC50,[2],98.1 mg/L
same,LC50,[3],97 mg/L
C=C1CC[C@@H]2[C@H]([C@@H]3[C@H](C)CC[C@@H]13)C2(C)C [Aromadendrene],"LC50 (Ae. aegypti), mg/L (95% CL)",[1],>150 mg/L
same,"LC50 (Ae. albopictus), mg/L (95% CL)",[2],129.21 (118.02–145.97) mg/L
same,"LC50 (Cx p. pallens), mg/L (95% CL)",[3],147.91 (127.93–188.26) mg/L
"CC12CCC(CC1)C(C)(C)O2 [1,8-cineole]",LC50,[1],73.3 mg/L
same,LC50,[2],73.5 mg/L
same,LC50,[3],72.9 mg/L
"CC(C)=CCCC(C)CC=O (single isomer, unassigned; (+)) [(+)-citronellal]","LC50 (Ae. aegypti), mg/L (95% CL)",[1],48.23 (42.42–55.64) mg/L
same,"LC50 (Ae. albopictus), mg/L (95% CL)",[2],46.39 (41.08–52.95) mg/L
same,"LC50 (Cx p. pallens), mg/L (95% CL)",[3],49.47 (43.52–57.04) mg/L
"C=CC(=C)CCC=C(C)C [Myrcene, β-myrcene]",LC50,[1],39.5 mg/L
same,LC50,[2],36 mg/L
same,LC50,[3],41.3 mg/L
CC(C)=CCC/C(C)=C/CO [Geraniol],LC50,[1],73.4 mg/L
same,LC50,[2],68.2 mg/L
same,LC50,[3],57 mg/L
C=CC(C)(O)CCC=C(C)C (stereo not shown) [Linalool],LC50,[1],113 mg/L
same,LC50,[2],129 mg/L
same,LC50,[3],144 mg/L
CC1=CCC(=C(C)C)CC1 [α-terpinolene],LC50,[1],15.3 mg/L
same,LC50,[2],13.9 mg/L
same,LC50,[4],13.9 mg/L
same,Resistance ratio,[4],1.31
same,LC50,[3],10.6 mg/L
CC1(C)C2CCC1(C)C(O)C2 (stereo not shown) [Borneol],LC50,[1],> 150 mg/L
same,LC50,[2],> 150 mg/L
same,LC50,[3],> 150 mg/L
"CC1(C)C2CC=C(CO)C1C2 (single isomer, unassigned; (-)) [(−)-myrtenol]","LC50 (Ae. aegypti), mg/L (95% CL)",[1],>150 mg/L
same,"LC50 (Ae. albopictus), mg/L (95% CL)",[2],>150 mg/L
same,"LC50 (Cx p. pallens), mg/L (95% CL)",[3],>150 mg/L
Cc1ccccc1C(C)C [o-cymene],"LC50 (Ae. aegypti), mg/L (95% CL)",[1],39.60 (33.25–46.71) mg/L
same,"LC50 (Ae. albopictus), mg/L (95% CL)",[2],48.57 (42.14–55.77) mg/L
same,"LC50 (Cx p. pallens), mg/L (95% CL)",[3],47.78 (40.96–55.39) mg/L
CC1=CC(=O)[C@H]2C[C@@H]1C2(C)C [(−)-verbenone],LC50,[1],96.8 mg/L
same,LC50,[2],89.4 mg/L
same,LC50,[3],89.1 mg/L
CC1=CC=C(C(C)C)CC1 [α-terpinene],LC50,[1],24.9 mg/L
same,LC50,[2],21.9 mg/L
same,LC50,[3],23.9 mg/L
Cc1ccc(C(C)C)cc1O [Carvacrol],LC50,[1],101 mg/L
same,LC50,[2],95 mg/L
same,LC50,[3],91.9 mg/L
CC1CCC(C(C)C)C(O)C1 (stereo not shown) [Menthol],LC50,[1],81.2 mg/L
same,LC50,[2],69.6 mg/L
same,LC50,[3],67.3 mg/L
CC(=O)OC1CC2CCC1(C)C2(C)C (stereo not shown) [Bornyl acetate],LC50,[1],> 150 mg/L
same,LC50,[2],> 150 mg/L
same,LC50,[3],> 150 mg/L
C=C(C)[C@H]1CC=C(C)C(=O)C1 [(S)-(+)-carvone],"LC50 (Ae. aegypti), mg/L (95% CL)",[1],42.14 (39.62–44.62) mg/L
same,"LC50 (Ae. albopictus), mg/L (95% CL)",[2],43.83 (41.78–45.91) mg/L
same,"LC50 (Cx p. pallens), mg/L (95% CL)",[3],46.19 (43.54–49.12) mg/L
CC1=CC[C@H]2C[C@@H]1C2(C)C [(1S)-(−)-α-pinene],LC50,[1],40 mg/L
same,LC50,[2],28.6 mg/L
same,LC50,[3],32 mg/L
"C=C(C)C1CC=C(C)CC1 (single isomer, unassigned; (+)) [(+)-limonene]",LC50,[1],15.3 mg/L
same,LC50,[2],10.8 mg/L
same,LC50,[4],10.5 mg/L
same,Resistance ratio,[4],0.98
same,LC50,[3],10.8 mg/L
